In data set [1] the target is T1, human recombinant N-terminal Hsp90α (Homo sapiens, UniProt P07900).
T1 construct: human recombinant N-terminal Hsp90α protein; purchased Reaction Biology Corporation (RBC, Malvern, PA, USA; assay service)
As to the kind of experiment: Fluorescence polarization competition assay with FITC-GM probe (Reaction Biology Corporation). The data set is classed as binding. The conditions noted are these: for inhibition at 10 µM: read-out: Hsp90α % Inhibition @10 μM; for IC50: 10-dose, threefold serial dilution starting at 100 μM, mean of two experiments.

The test system of another data set is MCF-7 cells. Kind of data set: MTT antiproliferative assay, MCF-7. The data set is classed as cell-based, human. As to conditions: for inhibition at 10 µM / GI50: Homo sapiens, MCF7, 72 h; for inhibition at 10 µM: read-out: MCF-7 % Inh. at 10 μM; for GI50: mean ± SEM of two experiments. How it is done:
The growth inhibitory effects of the test compounds, at 10 µM dose, were determined after 72 h incubation using the 3-(4,5-dimethylthiazol-2-yl)-2,5-diphenyl tetrazolium bromide (MTT) assay. […] Such modest cellular outcomes of those purine derivatives may be attributed to their lower lipophilic characters, which in turn restrict their cellular permeability into cancer cells. […] The 2-phenyloxazole-substituted purine 8 exerted reasonable antiproliferative activity, with GI values of 33.27% and 37.46% against MCF-7 and SK-BR-3 cells, respectively.
(§1) Cytotoxic activity of certain Hsp90 inhibitors against human cancer cell lines (MCF-7, SK-BR-3, and HCT116) was investigated using the MTT assay following the reported procedure. Cells were seeded into 96-well plates at a density of 3000 cells per well (MCF-7, HCT116, SK-BR-3 cells per each well). The compounds were added into cells and incubated for 72 h. Then, absorbance at 450 nm was measured using a Microplate Absorbance Reader (Bio-Rad, Hercules, CA, USA).
Background: Tetrazolium dyes change colour on reduction, which living cells bring about.

The test system of another data set is HCT116 cells. Kind of data set: MTT antiproliferative assay, HCT116. The data set is classed as cell-based, human. The conditions noted are these: for GI50: mean ± SEM of two experiments; for inhibition at 10 µM: read-out: HCT116 % Inh. at 10 μM. The protocol: The growth inhibitory effects of the test compounds, at 10 µM dose, were determined after 72 h incubation using the 3-(4,5-dimethylthiazol-2-yl)-2,5-diphenyl tetrazolium bromide (MTT) assay.
as §1

Another data set has as its system SK-BR-3 cells. Kind of data set: MTT antiproliferative assay, SK-BR-3. The data set is classed as cell-based, human. As to conditions: for GI50: mean ± SEM of two experiments; for inhibition at 10 µM: read-out: SK-BR-3 % Inh. at 10 μM.
Text: […] […] Such modest cellular outcomes of those purine derivatives may be attributed to their lower lipophilic characters, which in turn restrict their cellular permeability into cancer cells. […] The 2-phenyloxazole-substituted purine 8 exerted reasonable antiproliferative activity, with GI values of 33.27% and 37.46% against MCF-7 and SK-BR-3 cells, respectively.
as §1

In data set [2] the target is T2, mHsp90ND (N-terminal domain of mouse Hsp90α) (Mus musculus, UniProt P07901).
T2 construct: Hsp90α (residues 9–225 Swiss Prot entry: P07901); His6 (N); made in house; host or cells: Escherichia coli BL21 (DE3) codon plus RIL
Kind of data set: Isothermal titration calorimetry (ITC). The data set is classed as binding. How it is done:
The PCR product was cloned into plasmid pET28a, which encodes a purification tag consisting of the amino acids His6 at the N-terminal of the protein. mHsp90ND was expressed in Escherichia coli (E. coli) BL21 (DE3) codon plus RIL (Stratagene) cell. The cells were lysed by sonication in 50 mM Tris-HCl (pH 7.4), 100 mM NaCl, 2 mM 2-mercaptoethanol, and 0.2 mM phenylmethylsulfonyl fluoride (PMSF). After centrifugation, mHsp90ND in the supernatant was purified by Ni^2+-chelated Hi-trap chelating column, and HiLoad 26/60 200pg column (GE healthcare, Chicago, IL, USA). After the final step, mHsp90ND was stored in 20 mM Tris-HCl (pH 7.4), 100 mM NaCl, and 1 mM dithiothreitol (DTT).
Stock solutions of those compounds were prepared in dimethyl sulfoxide (DMSO) at 100 mM concentration and stored at −20 °C. The ITC buffer contained 20 mM Tris (pH 8.0), 100 mM NaCl, and up to 2% DMSO. […] The experimental raw data were corrected for dilution by subtracting the values for buffer alone and then fit by a one-site binding model. Titration data were fit using a nonlinear least squares curve-fitting algorithm with three floating variables: stoichiometry, binding constant (KD), and change of enthalpy of interaction.
(In general: Isothermal titration calorimetry measures the heat released or taken up as one component is titrated into another.)

Details of data set [3]: method as in PMID 22938030. As to conditions: in mice; cited from earlier work.
[4] abbreviates: single dose 10 μM, duplicate, FITC-GM probe.
The mark [5] stands for this setting: Homo sapiens, HCT-116, 72 h, 10 μM.
[6] abbreviates: Homo sapiens, SK-BR-3, 72 h, 10 μM.
Where [7] appears, read: ITC, 25 °C, one-site binding model.
Setting [8] is: ITC, 25 °C, one-site binding model, read-out: KD.

Where two headings read alike, the source gives them in different places.

One may read the GI50 as the concentration that inhibits growth by half. High values mean lower sensitivity of the cells, low ones greater sensitivity of the cells. Broadly, the Kd is the constant that tells how readily two partners part at equilibrium. Usually IC50 stands for the concentration that gives 50% inhibition. In general, melting point refers to the temperature, or range, at which the solid turns liquid.

Regarding `CCOC(=O)c1cc(Cn2cnc3c(Cl)nc(N)nc32)no1` [Compound 7, Ethyl 3-((2-amino-6-chloro-9H-purin-9-yl)methyl)isoxazole-5-carboxylate], the inhibition at 10 µM in data set [1] (setting [4]) was 14.8%.
Consider “6-Chloro-9-((2-phenyloxazol-5-yl)methyl)-7H-purin-2-amine [Compound 8]”, for which, in the data set on MCF-7 cells (10 μM, 72 h), the “MCF-7 % Inh. at 10 μM” value is on record as 33.27%. In addition, the “HCT116 % Inh. at 10 μM” value in the data set with HCT116 cells (10 μM, 72 h) was 19.19%. In addition, the GI50 with HCT116 cells (72 h) was 23.4 ± 2.94 µM; in the data set with SK-BR-3 cells (72 h), 22.5 ± 0.7 µM. Besides, the “SK-BR-3 % Inh. at 10 μM” value in the data set with SK-BR-3 cells (10 μM, 72 h) was 37.46%. Moreover, in data set [1] (setting [4]), the “Hsp90α % Inhibition @10 μM” value was determined as 48.7%.
For `Cc1ccc(-c2[nH]nnc2Cn2cnc3c(Cl)nc(N)nc32)cc1` [Compound 12, 6-Chloro-9-((5-(p-tolyl)-1H-1,2,3-triazol-4-yl)methyl)-9H-purin-2-amine], the “Hsp90α % Inhibition @10 μM” value in data set [1] (setting [4]) is reported as “fluorescence background that interfered with the assay”.
For the compound `CC(C)(C)c1cc(Cn2cnc3c(Cl)nc(N)nc32)on1` [Compound 6b, 9-((3-(tert-Butyl)isoxazol-5-yl)methyl)-6-chloro-9H-purin-2-amine], the inhibition at 10 µM in the data set with MCF-7 cells (10 μM) was 15.7%; in the data set on HCT116 cells (setting [5]), 26%; in the data set on SK-BR-3 cells (setting [6]), 45.8%; in data set [1] (setting [4]) it was 95.8%. Moreover, in the data set on SK-BR-3 cells (Homo sapiens, SK-BR-3, 72 h), growth was halved (GI50) at 26 ± 1.36 µM. Moreover, the “∆H” value in data set [2] (ITC, 25 °C) is -14.5 ± 0.4 kcal/mol. Moreover, the “∆S” value in data set [2] (ITC, 25 °C) is recorded as −19.4 cal/mol/deg. Moreover, the “N (binding stoichiometry)” value in data set [2] (setting [7]) stood at 0.97. Also, in data set [2] (setting [8]), the Kd was 440 nM. Also, the “potency relative to isoxazoline congener 4b (from % inhibition)” value in data set [1] (10 μM, FITC-GM probe) is 2.7 fold. Further, the IC50 in data set [1] (FITC-GM probe) is 1760 nM.
Regarding `Cc1ccc(C#CCn2cnc3nc(N)nc(Cl)c32)cc1` [Compound 11, 6-Chloro-7-(3-(p-tolyl)prop-2-yn-1-yl)-7H-purin-2-amine], in data set [1] (setting [4]), the “Hsp90α % Inhibition @10 μM” value is reported as “fluorescence background that interfered with the assay”.
`Cc1ccc(-c2[nH]nnc2Cn2cnc3nc(N)nc(Cl)c32)cc1` [Compound 13, 6-Chloro-7-((5-(p-tolyl)-1H-1,2,3-triazol-4-yl)methyl)-7H-purin-2-amine]: the “Hsp90α % Inhibition @10 μM” value in data set [1] (setting [4]) was “fluorescence background that interfered with the assay”.
As for `COc1c(C)cnc(Cn2cnc3c(Cl)nc(N)nc32)c1C` [BIIB021, reference compound], the inhibition at 10 µM in the data set with MCF-7 cells (10 μM) was determined as 84.8%; in the data set on HCT116 cells (setting [5]), 86.2%; in the data set on SK-BR-3 cells (setting [6]), 71.9%. In addition, the GI50 in the data set on MCF-7 cells is 392 ± 30 nM; with SK-BR-3 cells (Homo sapiens, SK-BR-3, 72 h), 0.347 ± 0.023 µM.
For the compound `CC(C)c1cc(Cn2cnc3c(Cl)nc(N)nc32)on1` [Compound 6c, 6-Chloro-9-((3-isopropylisoxazol-5-yl)methyl)-9H-purin-2-amine], the inhibition at 10 µM is 11.9% in the data set with MCF-7 cells (10 μM), -0.6% in the data set with HCT116 cells (setting [5]), 33.2% with SK-BR-3 cells (setting [6]) and 77.3% in data set [1] (setting [4]). In addition, the “∆H” value in data set [2] (ITC, 25 °C) is -15.8 ± 0.5 kcal/mol. The “∆S” value in data set [2] (ITC, 25 °C) is reported as −24.8 cal/mol/deg. Besides, the “N (binding stoichiometry)” value in data set [2] (setting [7]) is 1.00. Moreover, the Kd in data set [2] (setting [8]) was 680 nM. For the same compound, the IC50 in data set [1] (FITC-GM probe) turned out to be 203 nM.
Take `CC(C)(C)C1=NOC(Cn2cnc3c(Cl)nc(N)nc32)C1` (centres unmarked) [Compound 4b, 9-((3-(tert-Butyl)-4,5-dihydroisoxazol-5-yl)methyl)-6-chloro-9H-purin-2-amine]: the melting point lay within 198.3 to 200.8 °C. In the data set on HCT116 cells (setting [5]), the inhibition at 10 µM is less than 30%. For the same compound, in data set [2] (ITC, 25 °C), the “∆H” value is -19.8 ± 3.29 kcal/mol and the “∆S” value is recorded as −44.5 cal/mol/deg. For the same compound, in data set [2] (setting [7]), the “N (binding stoichiometry)” value was determined as 1.17. The Kd in data set [2] (setting [8]) stood at 15600 nM. For the same compound, in data set [1] (setting [4]), the inhibition at 10 µM came to 35.4%.
`COc1c(C)cnc(Cn2cc(C#CCC(C)(C)O)c3c(Cl)nc(N)nc32)c1C` [EC144]: the “efficacy relative to BIIB021” value in data set [3] is “approximately 20 fold”.
With `C=CCNC1=C2C[C@@H](C)C[C@H](OC)[C@H](O)[C@@H](C)/C=C(\C)[C@H](OC(N)=O)[C@@H](OC)/C=C\C=C(/C)C(=O)NC(=CC1=O)C2=O` [Compound 17-AAG, Allyl-aminogeldanamycin, reference compound], the inhibition at 10 µM with MCF-7 cells (10 μM) came to 79.7%; in the data set on HCT116 cells (setting [5]), 88.9%; in the data set with SK-BR-3 cells (setting [6]) it was 74.4%; in data set [1], 100%. The GI50 came to 498 ± 60 nM in the data set with MCF-7 cells; 0.205 ± 0.009 µM in the data set with HCT116 cells (Homo sapiens, HCT-116, 72 h); 0.14 ± 0.012 µM in the data set with SK-BR-3 cells (Homo sapiens, SK-BR-3, 72 h). The compound further registered a Kd in data set [2] of 2900 nM. Also, the “N (binding stoichiometry)” value in data set [2] came out at 0.98. The “∆H” value in data set [2] is -8.6 ± 0.4 kcal/mol. In addition, the “∆S” value in data set [2] is −3.66 cal/mol/deg.
As to `Cc1ccc(C#CCn2cnc3c(Cl)nc(N)nc32)cc1` [Compound 10, 6-Chloro-9-(3-(p-tolyl)prop-2-yn-1-yl)-9H-purin-2-amine], the inhibition at 10 µM in data set [1] (setting [4]) came out at 22.2%.
`Nc1nc(Cl)c2c(ncn2Cc2cnc(-c3ccccc3)o2)n1` [Compound 9, 6-Chloro-7-((2-phenyloxazol-5-yl)methyl)-7H-purin-2-amine]: the “Hsp90α % Inhibition @10 μM” value in data set [1] (setting [4]) is recorded as “fluorescence background that interfered with the assay”.

Values taken from article PMC7763603, “Structural Basis for Design of New Purine-Based Inhibitors Targeting the Hydrophobic Binding Pocket of Hsp90” (International Journal of Molecular Sciences, 2020).
